Experimental findings from PubChem BioAssay (NCI) are described below.

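Following 48 hours of exposure in 96-well plates, responses at five concentrations were used to interpolate endpoints linearly. GI50 is the concentration that inhibits growth by half. Definition used: TGI = concentration required for complete inhibition of growth.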

Among the test systems are NCI-H522 lung; 786-0 renal; HS 578T breast; NCI-H460 lung; MCF7 breast; NCI-H23 lung; HL-60(TB) leukemia; OVCAR-4 ovarian.
Holding throughout (test): growth of human tumour cells (NCI), 48 h

As for `C=CC(=O)N1CC2(CC(n3nc(-c4ccc5c(cnn5C)c4)c(-c4c(Cl)c(C)cc5[nH]ncc45)c3C)C2)C1`, the GI50 in the experiment on NCI-H522 lung was 2.09 µM; in the experiment with 786-0 renal, 3.71 µM; in the experiment with HS 578T breast, 5.56 µM; with NCI-H460 lung, 3.12 µM; in the experiment with MCF7 breast, 2.2 µM; in the experiment with HL-60(TB) leukemia, 2.58 µM. Besides, the GI50 in the experiment on OVCAR-4 ovarian was 3.52 µM. In addition, the TGI worked out at 5.15 µM in the experiment with NCI-H522 lung; 15.4 µM with 786-0 renal; 62.9 µM in the experiment with HS 578T breast; 10.3 µM with NCI-H460 lung; 7.03 µM in the experiment with MCF7 breast; 1.72 µM with NCI-H23 lung. Besides, the values for the TGI with HL-60(TB) leukemia and in the experiment on OVCAR-4 ovarian were 9.27 µM and 14.8 µM, respectively.

As to `COC(=O)C=Cc1ccc2nncnc2c1` (mixture of isomers), the TGI with NCI-H522 lung, in the experiment on 786-0 renal, with HS 578T breast, in the experiment with MCF7 breast, with HL-60(TB) leukemia and in the experiment with OVCAR-4 ovarian was over 100 µM in each case.

In the case of `c1cc2c(cn1)Nc1ccncc1S2`, the GI50 with NCI-H522 lung was 40.4 µM; in the experiment with 786-0 renal it was 23.7 µM; in the experiment with HS 578T breast, 29.6 µM; in the experiment on NCI-H460 lung, 27.8 µM; in the experiment on MCF7 breast, 32.9 µM; with NCI-H23 lung, 43.4 µM. Besides, the GI50 with HL-60(TB) leukemia was 20.5 µM; in the experiment with OVCAR-4 ovarian, over 100 µM. For the same compound, the TGI is over 100 µM with NCI-H522 lung; 78.1 µM with 786-0 renal; over 100 µM in the experiment on HS 578T breast; over 100 µM in the experiment on NCI-H460 lung; over 100 µM in the experiment on MCF7 breast; over 100 µM with NCI-H23 lung. Besides, the TGI in the experiment with HL-60(TB) leukemia is 68.5 µM; in the experiment on OVCAR-4 ovarian it was over 100 µM.

Take `N#CC1c2ccccc2C=CN1C(=O)N(c1ccccc1)c1ccccc1` (stereo not drawn): the GI50 is 1.78 µM in the experiment with NCI-H522 lung; 4.32 µM in the experiment on 786-0 renal; 3.14 µM in the experiment on HS 578T breast; 15.9 µM in the experiment with NCI-H460 lung; 2.9 µM in the experiment with MCF7 breast; 4.09 µM in the experiment on NCI-H23 lung. Moreover, the GI50 was 2.11 µM in the experiment on HL-60(TB) leukemia and 2.99 µM in the experiment on OVCAR-4 ovarian. The TGI turned out to be 3.33 µM with NCI-H522 lung; 15.2 µM in the experiment on 786-0 renal; 13.7 µM with HS 578T breast; 34.2 µM with NCI-H460 lung; 9.56 µM in the experiment with MCF7 breast; 19.3 µM in the experiment on NCI-H23 lung. The TGI was determined as 6.24 µM in the experiment on HL-60(TB) leukemia and 8.29 µM with OVCAR-4 ovarian.

As to `COC(=O)c1ccc(NC(=O)Oc2ccc(N(CCCl)CCCl)cc2)cc1`, the GI50 is 3.47 µM in the experiment on NCI-H522 lung; 4.95 µM with 786-0 renal; 18.8 µM with HS 578T breast; 0.386 µM with NCI-H460 lung; 1.6 µM in the experiment with MCF7 breast; 4.75 µM in the experiment with NCI-H23 lung. The GI50 in the experiment with HL-60(TB) leukemia was 0.867 µM; in the experiment on OVCAR-4 ovarian it was 13.8 µM. The TGI with NCI-H522 lung is 16.3 µM; with 786-0 renal, 25.6 µM; in the experiment with HS 578T breast, 97.9 µM; in the experiment on NCI-H460 lung, 14.9 µM; with MCF7 breast it was over 100 µM; with NCI-H23 lung, over 100 µM. Moreover, the TGI in the experiment on HL-60(TB) leukemia turned out to be 11.6 µM; in the experiment with OVCAR-4 ovarian it was 38.2 µM.

Regarding `CCOC(=O)COc1ccc2c(C)cc(=O)oc2c1`, the TGI with NCI-H522 lung, in the experiment on 786-0 renal, in the experiment with HS 578T breast, in the experiment on NCI-H460 lung, in the experiment on MCF7 breast and in the experiment with NCI-H23 lung was over 100 µM throughout. Further, the TGI with HL-60(TB) leukemia and in the experiment with OVCAR-4 ovarian was over 100 µM throughout.

As for `Cc1ccc(S(=O)(=O)NC(CN)C(=O)O)cc1` (stereo not drawn), the TGI in the experiment on NCI-H522 lung, with 786-0 renal, in the experiment with HS 578T breast, with NCI-H460 lung, in the experiment with MCF7 breast and in the experiment with NCI-H23 lung was over 100 µM each time. This compound also gave a TGI in the experiment on OVCAR-4 ovarian of over 100 µM.

Turning to `O=C(COc1cccc(/C=C2\CSc3ccccc3C2=O)c1)Nc1nccs1`, the GI50 was 1.55 µM in the experiment on NCI-H522 lung; 3.7 µM in the experiment with 786-0 renal; 2.79 µM in the experiment on HS 578T breast; 10 µM in the experiment on NCI-H460 lung; 0.779 µM in the experiment with MCF7 breast; 1.85 µM in the experiment on NCI-H23 lung. For the same compound, in the experiment with OVCAR-4 ovarian, the GI50 is 3.94 µM. The TGI in the experiment on NCI-H522 lung turned out to be 3.27 µM; in the experiment on 786-0 renal, 13 µM; with HS 578T breast it was 12.5 µM; in the experiment on NCI-H460 lung, 25.5 µM; in the experiment with MCF7 breast it was 3.54 µM; in the experiment with NCI-H23 lung it was 8.79 µM. For the same compound, the TGI in the experiment with OVCAR-4 ovarian turned out to be 19.4 µM.

On to `COC(=O)CSSCc1ccc([N+](=O)[O-])cc1`, for which the TGI with NCI-H522 lung is 30.8 µM; with 786-0 renal, 65.3 µM; in the experiment on HS 578T breast, 59.4 µM; in the experiment on NCI-H460 lung, over 100 µM; in the experiment with MCF7 breast it was 34.3 µM; in the experiment with NCI-H23 lung it was over 100 µM. In the experiment on HL-60(TB) leukemia, this compound showed a TGI of 76.2 µM.

On to `Nc1ncnc2c1ncn2C1OC(CO)C(O)C1N` (stereo not drawn), for which the TGI with NCI-H522 lung, in the experiment with 786-0 renal, in the experiment on HS 578T breast, in the experiment with NCI-H460 lung, in the experiment with NCI-H23 lung and with HL-60(TB) leukemia was over 100 µM throughout. The compound further came in with a TGI with OVCAR-4 ovarian of over 100 µM.

In the case of `COc1cc2c(=O)[nH]c3cc([N+](=O)[O-])ccc3c2cc1[N+](=O)[O-]`, the GI50 in the experiment with NCI-H522 lung was 1.67 µM; in the experiment with 786-0 renal it was 11.9 µM; with HS 578T breast it was 23.3 µM; in the experiment on MCF7 breast, 0.979 µM; in the experiment with NCI-H23 lung it was 3.69 µM; with HL-60(TB) leukemia it was over 100 µM. In addition, the GI50 with OVCAR-4 ovarian was 5.16 µM. For the same compound, the TGI with NCI-H522 lung, with 786-0 renal, in the experiment with HS 578T breast, with MCF7 breast, with NCI-H23 lung and with HL-60(TB) leukemia was over 100 µM throughout. The compound further showed a TGI in the experiment on OVCAR-4 ovarian of over 100 µM.

As for `CN(CCCNC(=O)CCOCCOCCOCCNC(=O)Cc1ccc2ccc3cccc4ccc1c2c34)CCCNc1cc(-c2ccc3ccccc3c2)nc2ccccc12`, the GI50 with 786-0 renal is 0.615 µM; in the experiment on HS 578T breast it was 1.59 µM; with NCI-H460 lung, 0.52 µM; in the experiment with MCF7 breast it was 0.283 µM; in the experiment on NCI-H23 lung, 0.767 µM; with OVCAR-4 ovarian it was 0.538 µM. The TGI in the experiment with 786-0 renal was determined as 1.11 µM; in the experiment on HS 578T breast, 11.5 µM; in the experiment on NCI-H460 lung, 1.02 µM; with MCF7 breast, 0.771 µM; with NCI-H23 lung it was 2.1 µM; with OVCAR-4 ovarian, 1.18 µM.
